Data from PMC7915765, “Biochemical Characterization, Specificity and Inhibition Studies of HTLV-1, HTLV-2, and HTLV-3 Proteases” (Life, 2021).
Numbering of substitutions follows the chain as printed. Entries after “also recorded” stand apart in the source; their conditions may differ. Read-outs that look alike come from different tables or passages of the source.

How the values were obtained:
[1] = molecular target: T1, HTLV-2 PR (Human T-cell leukemia virus 2, UniProt P03363); test: Inhibition study with HIV-1 PIs, HTLV-2 PR; type: biochemical, human T-cell leukemia virus type 2; design: made in house; host or cells: E. coli BL21(DE3); conditions: inhibitor 1 µM final; for loss of activity: substrate HTLV-2 MA/CA 0.40–0.43 mM, DMSO control = 100%, n = 2
Experimental: The inhibitors were dissolved in DMSO.

[2] = molecular target: T2, HTLV-3 PR (Human T-cell leukemia virus 3, UniProt Q4U0X6); test: Inhibition study with HIV-1 PIs, HTLV-3 PR; type: biochemical; design: made in house; host or cells: E. coli BL21(DE3), pET11a; conditions: inhibitor 1 µM final; for loss of activity: substrate HTLV-3 MA/CA 0.40–0.43 mM, DMSO control = 100%, n = 2
Experimental: (§1) The IB-268 (KTKVL-r-VVQPK) and IB-269 (APQVL-r-PVMHP) reduced peptide bond (-r-)-containing inhibitors, which were synthesized by Dr. Ivo Blaha (Ferring Leciva, Prague, Czech Republic).
(§2) The reaction mixtures were prepared to contain 4.8 µL of substrate (in 0.40–0.43 mM final concentration), 0.2 µL of inhibitor, 5 µL of the enzyme, and 10 µL of a 2× incubation buffer. The substrates representing HTLV-2 and HTLV-3 MA/CA cleavage sites were used for HTLV-2 and HTLV-3 PRs, respectively. In the case of HIV-1 PIs, we applied 100 µM inhibitor stocks, while 0.5–100 µM stocks of IB-268 and IB-269 were used for screening. The inhibitors were dissolved in DMSO. Therefore, 0.2 µL of DMSO was added to the control samples.

[3] = system: HTLV-1 PR; test: Protease activity assay with oligopeptide substrates (RP-HPLC), HTLV-1 PR; type: biochemical, human T-cell leukemia virus type 1; conditions: substrate 0.05–1.10 mM, 2× buffer 0.5 M K3PO4, 4 M NaCl, 10 v/v% glycerol, 10 mM DTT, pH 5.6, 37 °C, 0.5–4 h
Excerpt: (§3) The oligopeptides representing the naturally occurring matrix/capsid (MA/CA), capsid/nucleocapsid (CA/NC), trans-frame protein/protease (TF1/PR), and PR/p1 cleavage sites of HTLV-1, -2, and -3 PRs were used as substrates. The oligopeptide substrates representing the natural sequences of HTLV PRs were ordered from BioBasic, while the oligopeptide substrates representing naturally occurring cleavage sites of various viruses, or the wild-type, the shortened, and the P4, P3, P2, P1, or P1′ variants of HTLV-1 MA/CA cleavage site (KTKVL*VVQPK) were in-house stocks. All peptides were dissolved in distilled water.
(§4) For kinetic measurements, we applied 10 µL 2× incubation buffer (0.5 M K3PO4, 4 M NaCl, 10 v/v% glycerol, 10 mM DTT, pH 5.6), 5 µL of HTLV-1, HTLV-2, or HTLV-3 PR (final concentration of the active enzyme was in 0.1–34.4 nM), and 0.5–5 µL oligopeptide substrate representing HTLV PR natural cleavage sites (0.05–1.10 mM final concentration). The final volume of the reaction mixture was set to 20 µL with distilled water if it was necessary. The reactions were initiated by the addition of the enzyme, were incubated at 37 °C for 0.5–4 h, and stopped by the addition of 180 µL 1 v/v% TFA. For substrates representing natural cleavage sites of retroviruses other than HTLV-1, -2, and -3 PRs (HIV-1, equine infectious anemia virus (EIAV), Rous sarcoma virus (RSV), mouse mammary tumor virus (MMTV), Mason-Pfizer monkey virus (MPMV), and murine leukemia virus (MuLV) and BLV) in a longer incubation time (24 h) was also applied. The cleavage products were separated by using a Nova-Pack C18 RP-HPLC column (3.9 mm × 150 mm, Waters Associates Inc, Milford, MA, USA) on HPLC (Merck-Hitachi LaChrom). Water-acetonitrile gradient (0–100%) was used for separation in the presence of 0.05% TFA at 2 mL/min flow rate. The kinetic parameters were determined by fitting the data—obtained at less than 20% substrate hydrolysis—to the Michaelis–Menten equation. The Gaussian equation was used to determine pH optimum and exponential growth equation for determination of optimal NaCl concentration, while linear regression was applied to plot the dependence of enzyme activity on temperature. Prism8 software (GraphPad Software Inc., San Diego, CA, USA) was used for evaluation. The kcat/KM catalytic constants were calculated based on the active enzyme concentration, which was determined by active site titration using the method described previously.

[4] = molecular target: T1, HTLV-2 PR; test: Protease activity assay with oligopeptide substrates (RP-HPLC), HTLV-2 PR; type: biochemical, human T-cell leukemia virus type 2; design: made in house; host or cells: E. coli BL21(DE3); conditions: pH 5.6, 37 °C
Excerpt: as §3, §4

[5] = molecular target: T2, HTLV-3 PR; test: Protease activity assay with oligopeptide substrates (RP-HPLC), HTLV-3 PR; type: biochemical, human T-cell leukemia virus type 3; design: made in house; host or cells: E. coli BL21(DE3), pET11a; conditions: pH 5.6, 37 °C
Excerpt: as §3, §4

[6] = system: HTLV-1 PR; conditions: cleavage sites of viruses other than HTLV, retrieved from the literature, ref [28]; cited from earlier work
Excerpt: Table 2 Catalytic efficiencies of HTLV PRs on different substrates representing natural cleavage site sequences. Cleavage sites are labelled by asterisks within the sequences. Abbreviations: MA (matrix), CA (capsid), NC (nucleocapsid), and TF1 (trans-frame 1). | column: kcat/KM [mM^−1 s^−1] / HTLV-1 PR || Table 3 Catalytic efficiencies of HTLV PRs on different substrates representing natural cleavage site sequences of viruses other than HTLV. Cleavage sites are labelled by an asterisk within the sequences. Abbreviations: MA (matrix), CA (capsid), NC (nucleocapsid), TF (transframe), RT (reverse-transcriptase), and IN (integrase). | column: Substrate; kcat/KM (mM^−1 s^−1) / HTLV-1 PR ^1

[7] = system: HIV-1 PR; conditions: cleavage sites of viruses other than HTLV, retrieved from the literature, ref [28]; cited from earlier work
Excerpt: Table 3 Catalytic efficiencies of HTLV PRs on different substrates representing natural cleavage site sequences of viruses other than HTLV. Cleavage sites are labelled by an asterisk within the sequences. Abbreviations: MA (matrix), CA (capsid), NC (nucleocapsid), TF (transframe), RT (reverse-transcriptase), and IN (integrase). | column: kcat/KM (mM^−1 s^−1) / HIV-1 PR ^1

[8] = system: HTLV-1 PR; test: Inhibition study with HIV-1 PIs, HTLV-1 PR; type: biochemical, human T-cell leukemia virus type 1; conditions: inhibitor 1 µM final
Experimental: as §1, §2

[9] = system: HTLV-1 PR; conditions: ref [28], cited from earlier work; for activity of mutant (in words): HTLV-1 PR mutants, L57G with HTLV-1 CA/NC substrate (KTKVL*VVQPK); for self-processing: HTLV-1 PR, designed and characterized previously
Excerpt: Table 5 Effects of protease mutations on autoproteolytic activity of HTLV PRs. | column: Self-Processing || We prepared mutant HTLV-2 and HTLV-3 PRs, which contained mutations that were introduced previously to HTLV-1 PR to study its self-processing capability. The rationale behind the former mutation design was to prepare mutant HTLV-1 PRs that contain HIV-1-like residues in the flap region (57th and 59th) or at the active site (37th and 67th). The herein studied enzymes also contained the same mutations in the corresponding positions (Figure 10). All modified residue constitutes a part of substrate binding sites (Table 4).

[10] = natural HTLV cleavage sites, substrate 0.05–1.10 mM, 2× buffer 0.5 M K3PO4, 4 M NaCl, 10 v/v% glycerol, 10 mM DTT, 0.5–4 h
[11] = cleavage sites of viruses other than HTLV, longer incubation time (24 h) also applied

T1 sequence (P03363 447-571): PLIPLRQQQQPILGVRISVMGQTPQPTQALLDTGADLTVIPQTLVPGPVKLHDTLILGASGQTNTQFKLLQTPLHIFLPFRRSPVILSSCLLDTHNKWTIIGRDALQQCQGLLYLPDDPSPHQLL
T2 sequence (Q4U0X6 431-553): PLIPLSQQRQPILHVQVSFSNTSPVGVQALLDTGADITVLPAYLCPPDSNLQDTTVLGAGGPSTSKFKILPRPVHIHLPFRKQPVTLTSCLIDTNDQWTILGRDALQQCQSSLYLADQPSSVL

COC(=O)N[C@H](C(=O)N[C@@H](Cc1ccccc1)[C@@H](O)CN(Cc1ccc(-c2ccccn2)cc1)NC(=O)[C@@H](NC(=O)OC)C(C)(C)C)C(C)(C)C [atazanavir]
loss of activity [1]: < 50%
loss of activity [2]: < 50%

CC(C)(C)NC(=O)[C@@H]1C[C@@H]2CCCC[C@@H]2CN1C[C@@H](O)[C@H](Cc1ccccc1)NC(=O)[C@H](CC(N)=O)NC(=O)c1ccc2ccccc2n1 [saquinavir]
loss of activity [1]: < 50%
loss of activity [2]: < 50%

SPRTIL*PLIP [HTLV-2 TF1/PR, oligopeptide substrate SPRTIL*PLIP]
kcat/KM [3]: 4.9 ± 1.1 mM⁻¹ s⁻¹
kcat/KM [4, 10]: 132.5 ± 42.5 mM⁻¹ s⁻¹
kcat/KM [5, 10]: 5.0 ± 1.1 mM⁻¹ s⁻¹

ASQCL*PILHP [HTLV-3 MA/CA, oligopeptide substrate ASQCL*PILHP]
kcat/KM [3]: 40.9 ± 10.4 mM⁻¹ s⁻¹
kcat/KM [4, 10]: 2.6 ± 0.4 mM⁻¹ s⁻¹
kcat/KM [5, 10]: 19.7 ± 4.4 mM⁻¹ s⁻¹

PSKVL*PVLAP [HTLV-3 PR/P1, oligopeptide substrate PSKVL*PVLAP]
kcat/KM [3]: 7.0 ± 2.6 mM⁻¹ s⁻¹
kcat/KM [4, 10]: 2.1 ± 0.3 mM⁻¹ s⁻¹
kcat/KM [5, 10]: 22.6 ± 5.8 mM⁻¹ s⁻¹

PHQLL*PIATP [HTLV-2 PR/P1, oligopeptide substrate PHQLL*PIATP]
kcat/KM [3]: 10.7 ± 4.8 mM⁻¹ s⁻¹
kcat/KM [4, 10]: 92.2 ± 41.4 mM⁻¹ s⁻¹
kcat/KM [5, 10]: 7.5 ± 2.7 mM⁻¹ s⁻¹

PRTIL*PVIPL [HTLV-3 TF1/PR, oligopeptide substrate PRTIL*PVIPL]
kcat/KM [3]: 109.8 ± 29.3 mM⁻¹ s⁻¹

KNKIL*MIQPK [HTLV-3 CA/NC, oligopeptide substrate KNKIL*MIQPK]
kcat/KM [3]: not cleaved

PKDIF*PVTET [MPMV P12/CA, oligopeptide substrate PKDIF*PVTET]
kcat/KM [6]: 0.2 mM⁻¹ s⁻¹
kcat/KM [7]: 0.2 mM⁻¹ s⁻¹
kcat/KM [4, 11]: not cleaved
kcat/KM [5, 11]: not cleaved

IQPLIM*AVVNR [RSV P3/NC, oligopeptide substrate IQPLIM*AVVNR]
kcat/KM [6]: >100 mM⁻¹ s⁻¹
kcat/KM [7]: 318 mM⁻¹ s⁻¹
kcat/KM [4, 11]: not cleaved
kcat/KM [5, 11]: not cleaved

O=C1N(Cc2ccc(CO)cc2)[C@H](Cc2ccccc2)[C@H](O)[C@@H](O)[C@@H](Cc2ccccc2)N1Cc1ccc(CO)cc1 [DMP-323]
loss of activity [1]: < 50%
loss of activity [2]: < 50%

DSKAF*LADTW [MMTV PP21/P3, oligopeptide substrate DSKAF*LADTW]
kcat/KM [6]: not cleaved
kcat/KM [7]: 7.5 mM⁻¹ s⁻¹
kcat/KM [4, 11]: not cleaved
kcat/KM [5, 11]: not cleaved

TTQCF*PILHP [HTLV-2 MA/CA, oligopeptide substrate TTQCF*PILHP]
kcat/KM [3]: 14.4 ± 4.3 mM⁻¹ s⁻¹
kcat/KM [4, 10]: 4.3 ± 0.5 mM⁻¹ s⁻¹
kcat/KM [5, 10]: 37.8 ± 20.2 mM⁻¹ s⁻¹

CC(C)CN(C[C@@H](O)[C@H](Cc1ccccc1)NC(=O)O[C@H]1CO[C@H]2OCC[C@H]21)S(=O)(=O)c1ccc(N)cc1 [darunavir]
inhibitory effect (in words) [8]: highest inhibition
inhibitory effect (in words) [1]: highest inhibition
loss of activity [1]: < 50%
inhibitory effect (in words) [2]: highest inhibition
loss of activity [2]: < 50%

B1: HTLV-1 L57G (protein, UniProt P10274 450-574, looked up, variant L57G)
Protease: PVIPLDPARRPVIKAQVDTQTSHPKTIEALLDTGADMTVLPIALFSSNTPLKNTSVGGAGGQTQDHFKLTSLPVLIRLPFRTTPIVLTSCLVDTKNNWAIIGRDALQQCQGVLYLPEAKRPPVIL
modifications: Protease
activity of mutant (in words) [9]: inefficient enzyme; also recorded: did not hydrolyze the CA/NC cleavage site peptide

B2: HTLV-1 wild-type: wild-type HTLV-1 PR, self-processing studied previously (protein, UniProt P10274 450-574, looked up)
Protease: B1 Protease with G57L
modifications: Protease
notes: wild-type HTLV-1 PR, self-processing studied previously
self-processing [9]: yes

B3: HTLV-1 F67Q (protein, UniProt P10274 450-574, looked up, variant F67Q)
Protease: B1 Protease with G57L, F67Q
modifications: Protease
activity of mutant (in words) [9]: not tolerated
self-processing [9]: no

B4: HTLV-1 M37D (protein, UniProt P10274 450-574, looked up, variant M37D)
Protease: B1 Protease with M37D, G57L
modifications: Protease
self-processing [9]: no

B5: HTLV-1 A59I (protein, UniProt P10274 450-574, looked up, variant A59I)
Protease: B1 Protease with G57L, A59I
modifications: Protease
activity of mutant (in words) [9]: undetectable activity
